Laboratory results from article PMC2922380, “Binding of Protein Kinase Inhibitors to Synapsin I Inferred from Pair-Wise Binding Site Similarity Measurements” (PLoS ONE, 2010).
Read-outs that look alike come from different tables or passages of the source.

Key:
[1] = molecular target: bovine synapsin I (Bos taurus, UniProt P17599); experiment: ATP-γ35S binding competition assay on purified synapsin I; conditions: for maximal inhibition of ATP-γ35S binding to synapsin I: from curve fitting (lower plateau); for binding to synapsin I (result in words): ATP-γ35S competition, inhibitor 0.1–30 µM
Procedure: Synapsin I was purified from bovine brain [71] and stored in liquid nitrogen in 200 mM NaCl, 25 mM TrisCl, pH 7.4. […] ATP-γ^35S binding was quantified as previously described. Briefly, aliquots of the samples were spotted onto squares of phosphocellulose paper (Upstate/Millipore, Billerica, MA). The paper squares were extensively washed with deionized water for 30 min, air-dried and analyzed for radioactivity by using the Perkin Elmer Cyclone Plus Phosphor Imager. After subtraction of the background values (samples with no synapsin I), data from individual competition curves were fitted with a sigmoidal dose-response function (f = min +(max–min)/(1+10∧((logEC50-x)*Hillslope)) using the Sigmaplot 8.0 software (SPSS Inc., Chicago, IL) to yield IC50 and maximal inhibition values. Data in the plots are the means ± sem of at least 5 independent experiments.

[2] = test system: synapsin I / F-actin; experiment: F-actin bundling activity of synapsin I, low speed sedimentation assay; format: biochemical, bovine; conditions: staurosporine 5 µM; synapsin I 0.5 µM, F-actin 5 µM; vs samples with F-actin and synapsin I only
Procedure: Actin was purified from acetone powder of rabbit skeletal muscles, [96] and stored in liquid nitrogen in 2 mM Tris pH 8, 0.2 mM ATP, 0,2 mM CaCl2, 0.125 mM β-mercaptoethanol and 0.005% NaN3 (G-buffer). Before the experiments, both G-actin and synapsin I were prespun for 1 h at 4°C at 300,000× g to remove large aggregates. G-actin was polymerized at room temperature for 1 h in the presence of 100 mM KCl, 1.2 mM MgCl2. […] Pellets were solubilized in sample buffer and analyzed by sodium dodecylsulfate polyacrylamide gel electrophoresis (SDS-PAGE) using 10% acrylamide in the resolving gel. Gels were fixed, stained with Coomassie Blue and destained. Densitometric analysis of the actin bands was carried out by using the ImageQuant system (GE Healthcare) followed by densitometric analysis of the fluorograms and by data interpolation into a standard curve of purified G-actin run in parallel with the unknown samples.

[3] = ATP-γ35S 0.2 µM, purified bovine synapsin I 0.5 µM
[4] = ATP-γ35S 0.2 µM, purified bovine synapsin I 0.5 µM, means ± sem from 5 independent experiments, read-out: IC50, inhibition of ATP-γ35S binding to synapsin I

Compound	maximal inhibition of ATP-γ35S binding to synapsin I [1, 3]	IC50 [1, 4]	binding to synapsin I (result in words) [1]	other results
Nc1ncnc2c1ncn2[C@@H]1O[C@H](COP(=O)(O)OP(=O)(O)OP(=O)(O)O)[C@@H](O)[C@H]1O [ATP]	95.8±2.2%	70 ± 10 nM	–	–
CCc1cc(-c2n[nH]c(C)c2-c2ccc3c(c2)OCCO3)c(O)cc1O [CCT018159]	–	–	inactive	–
O=S(=O)(NCCNC/C=C/c1ccc(Br)cc1)c1cccc2cnccc12 [H-89]	–	> 30000 nM	–	–
Cc1nc2sccn2c(=O)c1CCN1CCC(=C(c2ccccc2)c2ccc(F)cc2)CC1 [R59022]	–	–	inactive	–
O=C(O)CN1C(=O)c2c(I)c(I)c(I)c(I)c2C1=O [compound 70159800251]	ca. 70%	500 nM	–	–
O=c1c(O)c(-c2ccc(O)c(O)c2)oc2cc(O)c(O)c(O)c12 [quercetagetin]	88.3±4.9%	–	–	IC50 [1]: 150 nM
CN[C@@H]1C[C@H]2O[C@@](C)([C@@H]1OC)n1c3ccccc3c3c4c(c5c6ccccc6n2c5c31)C(=O)NC4 [staurosporine]	84.3±1.2%	–	–	affinity to bovine synapsin I ([1]; in vitro competition assay, as restated in Discussion): about 0.3 µM; increase in F-actin/synapsin I bundles recovered by low speed sedimentation [2]: approximately 30%
novobiocin	–	–	inactive	–
